We go through 16 compounds from ChEMBL document CHEMBL1909046, “DrugMatrix in vitro pharmacology data”.

One may read the pIC50 as the negative decadic logarithm of the IC50, by convention in mol/L.

SMILES strings stand for the structures. pIC50: −log10 of the molar value.

Series [1] has as its target Tyrosine-protein kinase Fyn (Homo sapiens, UniProt P06241). Description: biochemical. The conditions noted are these: for IC50: insect cells. Format: cell-based, Insect cells.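 On all read-outs here: enzymatic inhibition of Fyn kinase activity measured with Poly(Glu:Tyr) as the phosphorylation substrate; in other assays of this panel Not Active means under 50% inhibition at 10 µM.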
The nature of series [2]: DRUGMATRIX: Leukotriene, BLT (LTB4) radioligand binding (ligand: [3H]LTB4). Format: cell membranes, Membrane. The conditions noted are these: u-937; Not Active = under 50% inhibition at 10 µM.
Series [3] deals with T1, C-X-C chemokine receptor type 2 (Homo sapiens, UniProt P25025).
T1 sequence (P25025 whole entry): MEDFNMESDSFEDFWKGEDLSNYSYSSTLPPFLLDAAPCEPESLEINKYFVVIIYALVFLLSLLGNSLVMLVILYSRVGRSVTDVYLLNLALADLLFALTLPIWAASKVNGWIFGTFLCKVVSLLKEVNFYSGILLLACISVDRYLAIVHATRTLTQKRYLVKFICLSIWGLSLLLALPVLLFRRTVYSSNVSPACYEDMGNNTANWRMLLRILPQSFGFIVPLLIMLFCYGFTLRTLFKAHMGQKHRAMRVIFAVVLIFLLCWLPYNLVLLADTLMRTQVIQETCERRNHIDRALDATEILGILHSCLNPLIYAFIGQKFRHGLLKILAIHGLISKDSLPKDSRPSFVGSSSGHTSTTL
Format: cell membranes, Membrane. The conditions noted are these: cho-k1.

Series [4] concerns the target Cytochrome P450 2C19 (Homo sapiens, UniProt P33261). The conditions noted are these: bti-tn-5b1-4. Further: in other assays of this panel Not Active means under 50% inhibition at 10 µM.
In series [5] the target is T2, Cysteinyl leukotriene receptor 1 (Homo sapiens, UniProt Q9Y271). Further: in other assays of this panel Not Active means under 50% inhibition at 10 µM.
T2 sequence (Q9Y271 whole entry): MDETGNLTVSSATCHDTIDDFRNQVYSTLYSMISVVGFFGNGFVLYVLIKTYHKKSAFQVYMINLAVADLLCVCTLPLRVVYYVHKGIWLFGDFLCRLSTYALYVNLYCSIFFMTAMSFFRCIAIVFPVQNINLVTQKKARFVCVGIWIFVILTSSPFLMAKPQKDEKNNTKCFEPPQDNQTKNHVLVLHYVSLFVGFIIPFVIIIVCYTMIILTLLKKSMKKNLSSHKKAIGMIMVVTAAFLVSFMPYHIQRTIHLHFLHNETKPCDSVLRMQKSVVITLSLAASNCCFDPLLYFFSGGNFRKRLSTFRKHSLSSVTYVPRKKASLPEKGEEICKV
Format: cell membranes, CHO-K1, Membrane. The conditions noted are these: cho-k1.

The nature of series [6]: DRUGMATRIX: Phosphodiesterase PDE4 enzyme inhibition (substrate: [3H]cAMP + cAMP). The conditions noted are these: u-937; Not Active = under 50% inhibition at 10 µM.
The target in series [7] is T3, Interstitial collagenase (Homo sapiens, UniProt P03956).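 Further: MMP-1 enzyme inhibition assay using a peptide substrate; in other assays of this panel Not Active means under 50% inhibition at 10 µM.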
T3 sequence (P03956 whole entry): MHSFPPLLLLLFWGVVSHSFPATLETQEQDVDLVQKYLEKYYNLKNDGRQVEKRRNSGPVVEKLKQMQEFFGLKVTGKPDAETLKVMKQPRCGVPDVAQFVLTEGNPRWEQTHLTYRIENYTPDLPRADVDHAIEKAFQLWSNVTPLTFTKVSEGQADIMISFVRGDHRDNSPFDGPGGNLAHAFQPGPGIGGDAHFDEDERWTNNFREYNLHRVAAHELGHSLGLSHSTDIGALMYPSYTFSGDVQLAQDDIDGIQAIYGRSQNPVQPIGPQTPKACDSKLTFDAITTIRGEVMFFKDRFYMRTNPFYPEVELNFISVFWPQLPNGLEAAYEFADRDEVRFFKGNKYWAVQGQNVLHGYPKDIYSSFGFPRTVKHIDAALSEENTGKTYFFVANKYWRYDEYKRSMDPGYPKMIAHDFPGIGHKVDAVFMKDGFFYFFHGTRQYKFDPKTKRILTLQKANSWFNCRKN
Briefly: biochemical. In kind it is tissue-based, Rheumatoid synovial fibroblasts.

Chain of Cytochrome P450 2C19 (P33261 whole entry): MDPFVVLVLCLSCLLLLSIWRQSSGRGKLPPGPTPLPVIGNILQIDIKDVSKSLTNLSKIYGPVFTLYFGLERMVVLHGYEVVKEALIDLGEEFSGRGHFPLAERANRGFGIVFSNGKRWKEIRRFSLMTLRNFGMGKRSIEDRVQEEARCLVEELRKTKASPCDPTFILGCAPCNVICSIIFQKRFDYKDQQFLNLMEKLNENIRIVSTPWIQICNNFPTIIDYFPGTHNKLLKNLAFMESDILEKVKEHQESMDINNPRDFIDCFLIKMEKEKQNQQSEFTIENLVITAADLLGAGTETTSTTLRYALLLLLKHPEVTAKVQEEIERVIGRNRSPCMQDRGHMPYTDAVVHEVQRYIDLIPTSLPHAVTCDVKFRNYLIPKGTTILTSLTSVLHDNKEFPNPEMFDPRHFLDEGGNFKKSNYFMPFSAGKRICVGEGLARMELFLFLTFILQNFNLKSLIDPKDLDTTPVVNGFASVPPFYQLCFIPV
Chain of Tyrosine-protein kinase Fyn (P06241 whole entry): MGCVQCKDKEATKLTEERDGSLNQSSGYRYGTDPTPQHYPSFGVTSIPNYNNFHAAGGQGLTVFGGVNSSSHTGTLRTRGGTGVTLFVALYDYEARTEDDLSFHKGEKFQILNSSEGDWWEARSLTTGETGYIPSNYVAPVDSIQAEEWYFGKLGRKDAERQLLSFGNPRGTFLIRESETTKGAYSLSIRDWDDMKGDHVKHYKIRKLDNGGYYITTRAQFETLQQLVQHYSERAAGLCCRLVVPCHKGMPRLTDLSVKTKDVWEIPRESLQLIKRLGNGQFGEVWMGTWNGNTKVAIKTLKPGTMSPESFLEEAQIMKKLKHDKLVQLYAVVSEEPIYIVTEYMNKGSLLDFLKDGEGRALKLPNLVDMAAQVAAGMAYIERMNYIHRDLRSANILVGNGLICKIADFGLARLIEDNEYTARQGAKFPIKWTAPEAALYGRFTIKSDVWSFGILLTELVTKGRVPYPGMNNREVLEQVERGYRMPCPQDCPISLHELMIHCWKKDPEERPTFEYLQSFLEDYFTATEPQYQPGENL

In the case of `C=C1CC[C@H](O)C/C1=C/C=C1\CCC[C@]2(C)[C@@H]([C@H](C)CCCC(C)C)CC[C@@H]12` [CHOLECALCIFEROL], the IC50 result in series [1], in series [2], in series [3], in series [4], in series [5] and in series [6] was “Not Active” throughout. For the same compound, in series [7], the IC50 result is on record as “Not Active”. For the same compound, the Ki result in series [2], in series [4] and in series [6] was “Not Active” each time.
Regarding `C[N+](C)(C)CCO.[Cl-]` [CHOLINE CHLORIDE], the IC50 result in series [1], in series [2], in series [3], in series [4], in series [5] and in series [6] was “Not Active” in each case. Also, the IC50 result in series [7] is recorded as “Not Active”. For the same compound, the Ki result in series [2], in series [4] and in series [6] was “Not Active” throughout.
For `CC(=O)OCC(=O)[C@@]1(O)CC[C@H]2[C@@H]3CCC4=CC(=O)CC[C@]4(C)[C@H]3C(=O)C[C@@]21C` [CORTISONE ACETATE], the IC50 entry in series [1], in series [2], in series [3], in series [4], in series [5] and in series [6] was “Not Active” throughout. Also, the IC50 result in series [7] was “Not Active”. The Ki entry in series [2], in series [4] and in series [6] was “Not Active” throughout.
Turning to `O=c1ccc2ccccc2o1` [COUMARIN], the IC50 result in series [1], in series [2], in series [3], in series [4], in series [5] and in series [6] was “Not Active” throughout. Moreover, the IC50 entry in series [7] was “Not Active”. The Ki entry in series [2], in series [4] and in series [6] was “Not Active” each time.
As to `CN(C)/N=N/c1[nH]cnc1C(N)=O` [DACARBAZINE], the IC50 result in series [1], in series [2], in series [3], in series [4], in series [5] and in series [6] was “Not Active” in each case. Besides, in series [7], the IC50 entry was “Not Active”. For the same compound, the Ki result in series [2], in series [4] and in series [6] was “Not Active” each time.
On to `COc1ccc2c(c1)[C@]13CCCC[C@@H]1[C@H](C2)N(C)CC3` [DEXTROMETHORPHAN], for which the IC50 result in series [1], in series [2], in series [3], in series [4], in series [5] and in series [6] was “Not Active” throughout. In addition, in series [7], the IC50 entry was “Not Active”. In addition, the Ki result in series [2], in series [4] and in series [6] was “Not Active” in each case.
Take `CC(=O)Nc1c(I)c(NC(C)=O)c(I)c(C(=O)O)c1I` [DIATRIZOIC ACID]: the IC50 entry in series [1], in series [2], in series [3], in series [4], in series [5] and in series [6] was “Not Active” in each case. Also, the IC50 entry in series [7] was “Not Active”. Moreover, the Ki entry in series [2], in series [4] and in series [6] was “Not Active” throughout.
Turning to `COP(=O)(OC)OC=C(Cl)Cl` [DICHLORVOS], the IC50 result in series [1], in series [2], in series [3], in series [4], in series [5] and in series [6] was “Not Active” throughout. In series [7], the IC50 entry is listed as “Not Active”. Further, the Ki result in series [2], in series [4] and in series [6] was “Not Active” throughout.
As for `O=C(O)Cc1ccccc1Nc1c(Cl)cccc1Cl` [DICLOFENAC], the IC50 entry in series [1], in series [2], in series [3], in series [4], in series [5] and in series [6] was “Not Active” throughout. Further, the IC50 result in series [7] was “Not Active”. For the same compound, the Ki entry in series [2], in series [4] and in series [6] was “Not Active” in each case.
With `C[C@H]1O[C@@H](O[C@H]2[C@@H](O)C[C@H](O[C@H]3[C@@H](O)C[C@H](O[C@H]4CC[C@@]5(C)[C@H](CC[C@@H]6[C@@H]5CC[C@]5(C)[C@@H](C7=CC(=O)OC7)CC[C@]65O)C4)O[C@@H]3C)O[C@@H]2C)C[C@H](O)[C@@H]1O` [DIGITOXIN], the IC50 result in series [1], in series [2], in series [3], in series [4], in series [5] and in series [6] was “Not Active” throughout. The IC50 result in series [7] is reported as “Not Active”. Further, the Ki result in series [2], in series [4] and in series [6] was “Not Active” throughout.
Regarding `CCN1CC(CCN2CCOCC2)C(c2ccccc2)(c2ccccc2)C1=O` (stereo not given) [DOXAPRAM], the IC50 result in series [1], in series [2], in series [3], in series [4], in series [5] and in series [6] was “Not Active” in each case. In series [7], the IC50 entry is on record as “Not Active”. For the same compound, the Ki entry in series [2], in series [4] and in series [6] was “Not Active” each time.
For the compound `Cn1c(=O)c2c(ncn2CC2OCCO2)n(C)c1=O` [DOXOFYLLINE], the IC50 result in series [1], in series [2], in series [3], in series [4], in series [5] and in series [6] was “Not Active” throughout. For the same compound, in series [7], the IC50 entry is “Not Active”. Besides, the Ki entry in series [2], in series [4] and in series [6] was “Not Active” throughout.
`COc1cccc2c1C(=O)c1c(O)c3c(c(O)c1C2=O)C[C@@](O)(C(=O)CO)C[C@@H]3O[C@H]1C[C@H](N)[C@H](O)[C@H](C)O1` [DOXORUBICIN] had a pIC50 in series [1] of 5.29. Besides, the IC50 entry in series [2], in series [3], in series [4], in series [5], in series [6] and in series [7] was “Not Active” each time. Also, the Ki result in series [2], in series [4] and in series [6] was “Not Active” in each case.
Take `COc1cccc2c1C(=O)c1c(O)c3c(c(O)c1C2=O)C[C@@](O)(C(=O)CO)C[C@@H]3O[C@H]1C[C@H](N)[C@@H](O)[C@H](C)O1` [EPIRUBICIN]: the pIC50 in series [1] (read-out: IC50) is 5.29. Moreover, the IC50 entry in series [2], in series [3], in series [4], in series [5], in series [6] and in series [7] was “Not Active” in each case. Also, the Ki result in series [2], in series [4] and in series [6] was “Not Active” in each case.
For the compound `C[C@]12CC[C@@H]3c4ccc(OC(=O)c5ccccc5)cc4CC[C@H]3[C@@H]1CC[C@@H]2O` [ESTRADIOL BENZOATE], in series [1] (read-out: IC50), the pIC50 was 4.64. Further, the IC50 result in series [2], in series [3], in series [4], in series [5], in series [6] and in series [7] was “Not Active” throughout. The Ki entry in series [2], in series [4] and in series [6] was “Not Active” each time.
As to `C[C@]12CC[C@@H]3c4ccc(O)cc4CC[C@H]3[C@@H]1CC[C@@H]2O` [ESTRADIOL], the IC50 entry in series [1], in series [2], in series [3], in series [4], in series [5] and in series [6] was “Not Active” each time. Besides, the IC50 result in series [7] was “Not Active”. Besides, the Ki entry in series [2], in series [4] and in series [6] was “Not Active” in each case.
